Ends that are not written are not given here.
Experiments:
E. coli DH5 alpha = assay type: cell-based, Escherichia coli
Experimental: A MIC assay was set up using heat treated CAP18 variants in a 96-well plate. […] Appropriate controls (media only control, no CAP18 control) were included on the same plate. The plates were incubated at 37° C. for 24-48 hours and MIC for each variant was recorded. The experiment was repeated 3 times.

E. coli DH5alpha [1] = assay type: cell-based, Escherichia coli; conditions: peptide treated with proteinase K at 37° C. before MIC assay
Experimental: CAP18 peptide variants single mutants were evaluated for resistance to proteinase K. Peptides were subjected to proteinase K treatment and then assessed for bacterial cell killing (against E. coli) in a MIC assay.
CAP18 variants were synthesized from GenScript, Inc, and solubilized in sterile purified water to a final concentration of 4 mg/ml. E. coli DH5alpha was grown overnight in 10 ml LB broth. Ten microliters of each CAP18 variant was treated with 2 μl of proteinase K (Qjagen, >600 mAU/ml) and incubated at 37° C. for 2 or 5 minutes in a PCR machine. The samples were then incubated at 98° C. for 5 minutes to inactivate proteinase K. An MIC assay was set up using proteinase K-treated CAP18 variants in a 96-well plate. Briefly, the peptides were serially diluted 2-fold in LB broth to achieve a final volume of 50 μl in each well and 50 μl of the E. coli DH5alpha culture adjusted to a concentration of 2×10^6 cells/ml was added into each well. Appropriate controls (media only control, no CAP18 control) were included on the same plate. The plates were incubated at 37° C. for 24-48 hours and MIC for each variant was recorded. The experiment was repeated 3 times.

E. coli DH5alpha [2] = assay type: cell-based, Escherichia coli; conditions: peptide treated with trypsin at 37° C. before MIC assay
Experimental: CAP18 peptide variants single mutants were evaluated for resistance to trypsin. Peptides were subjected to trypsin protease treatment and then assessed for bacterial cell killing (against E. coli) in a MIC assay.
CAP18 variants were synthesized from GenScript, Inc, and solubilized in sterile purified water to a final concentration of 4 mg/ml. E. coli DH5alpha was grown overnight in 10 ml LB broth. Ten microliters of each CAP18 variant was treated with 2 μl (or 2 μl of the 10-fold diluted trypsin) of trypsin (0.25%, Sigma Aldrich) and incubated at 37° C. for 2 or 5 minutes in a PCR machine. The samples were then incubated at 98° C. for 5 minutes to inactivate trypsin. An MIC assay was set up using trypsin-treated CAP18 variants in a 96-well plate. Briefly, the peptides were serially diluted 2-fold in LB broth to achieve a final volume of 50 μl in each well and 50 μl of the E. coli DH5alpha culture adjusted to a concentration of 2×10^6 cells/ml was added into each well. Appropriate controls (media only control, no CAP18 control) were included on the same plate. The plates were incubated at 37° C. for 24-48 hours and MIC for each variant was recorded. The experiment was repeated 3 times.

[3] = system: Escherichia coli Dh5alpha; experiment: MIC with diluted or undiluted trypsin and without trypsin (variant CAP18 peptides); assay type: cell-based; conditions: compared to WT CAP18
Experimental: Testing of CAP18 variants for protease resistance using Escherichia coli Dh5alpha as an indicator organism. CAP18 variants were synthesized from GenScript, Inc, and solubilized in sterile purified water to a final concentration of 4 mg/ml. E. coli DH5alpha was grown overnight in 10 ml LB broth. Ten microliters of each CAP18 variant was treated with 2 μl (or 2 μl of the 10-fold diluted trypsin) of trypsin (0.25%, Sigma Aldrich) and incubated at 37° C. for 2 or 5 minutes in a PCR machine. An MIC assay was set up using trypsin-treated CAP18 variants in a 96-well plate. Briefly, the peptides were serially diluted 2-fold in LB broth to achieve a final volume of 50 μl in each well and 50 μl of the E. coli DH5alpha culture adjusted to a concentration of 2×10^6 cells/ml was added into each well. Appropriate controls (media only control, no CAP18 control) were included on the same plate. The plates were incubated at 37° C. for 24-48 hours and MIC for each variant was recorded. The experiment was repeated 3 times.
Numerous variant CAP18 peptides were tested to determine and assess their resistance to protease. In each assessment, the variant CAP18 peptides were compared to wild type CAP18 rabbit sequence ([…] (SEQ ID NO:1)). Peptides were evaluated using trypsin diluted 1:10, 1:2 and undiluted. Experiments were conducted in duplicate. In each instance minimal inhibitory concentration (MIC) of the peptide was determined in the presence of the applicable diluted or undiluted trypsin and in the absence of trypsin. Experiments l and 2 are duplicate assessments with 1:10 diluted trypsin. Experiments 3 and 4 are duplicate assessments with 1:2 diluted trypsin. Experiments 5 and 6 are duplicate assessments with undiluted trypsin.

Giardia = Giardia plate assay, % of control (Table 3); assay type: cell-based; conditions: Conc 10 (uM or %); plate G7
From the text: Data comparing AMP01 (wild type CAP 18 peptide (SEQ ID NO: 1) with various other agents is tabulated in Table 3. NTZ corresponds to nitazoxanide. ALB corresponds to albendazole.

[4] = system: Bovine Respiratory Disease (BRD); conditions: positive control treatment; reduces from approximately 30%; cited from earlier work

GLRKRLKKFRNKIKEKLKKIGQKIQGLLPKLAPRTDY [C9]
Thermotolerance at 90 for 5 minutes (MIC, ug/ml) (E. coli DH5 alpha): 50 µg/mL | Resistance to proteinase K (MIC, ug/ml) (E. coli DH5alpha [1]): 400 µg/mL | Resistance to trypsin (MIC, ug/ml) (E. coli DH5alpha [2]): 400 µg/mL

GIRKRLRKFRNKIKEKLKKIGQKIQGLLPKLAPRTDY [C13]
Thermotolerance at 90 for 5 minutes (MIC, ug/ml) (E. coli DH5 alpha): 200 µg/mL | Resistance to proteinase K (MIC, ug/ml) (E. coli DH5alpha [1]): >400 µg/mL | Resistance to trypsin (MIC, ug/ml) (E. coli DH5alpha [2]): 100 µg/mL

CWTKSIPPKPCGLRKRLKKIKNKIKEKLKKIGQKIQGLLPKLAPRTDY (Description of sequence: Mutation Sequence) [SEQ ID NO: 18]
activity (MIC) and protease resistance [3]: effective at the lowest concentration (lowest MIC) and was the most protease resistant in all experiments

GLRKKLRKFRNKIKEKLKKIGQKIQGLLPKLAPRTDY [C8]
Thermotolerance at 90 for 5 minutes (MIC, ug/ml) (E. coli DH5 alpha): 100 µg/mL | Resistance to proteinase K (MIC, ug/ml) (E. coli DH5alpha [1]): 400 µg/mL | Resistance to trypsin (MIC, ug/ml) (E. coli DH5alpha [2]): 50 µg/mL

CWTKSIPPKPCGLRKKLKKIRNKIKEKLKKIGQKIQGLLPKLAPRTDY (Description of sequence: Mutation Sequence) [SEQ ID NO: 20]
activity (MIC) and protease resistance [3]: better activity (lower MIC) and protease resistance

GLRKRLRKFRNKIKEKLKKIGQKIQGLLPKLAPKTDY [C11]
Thermotolerance at 90 for 5 minutes (MIC, ug/ml) (E. coli DH5 alpha): 200 µg/mL | Resistance to proteinase K (MIC, ug/ml) (E. coli DH5alpha [1]): >400 µg/mL | Resistance to trypsin (MIC, ug/ml) (E. coli DH5alpha [2]): 200 µg/mL

CC(=O)Oc1ccccc1C(=O)Nc1ncc([N+](=O)[O-])s1 [NTZ, nitazoxanide]
% of control MV (Giardia): 0.6%

GLRKRLRKFRNKIKPKLKKIGQKIQGLLPKLAPRTDY [C4]
Thermotolerance at 90 for 5 minutes (MIC, ug/ml) (E. coli DH5 alpha): 400 µg/mL | Resistance to proteinase K (MIC, ug/ml) (E. coli DH5alpha [1]): >400 µg/mL | Resistance to trypsin (MIC, ug/ml) (E. coli DH5alpha [2]): >400 µg/mL

CWTKSIPPKPCGLRKRLRKIKNKIKEKLKKIGQKIQGLLPKLAPKTDY (Description of sequence: Mutation Sequence) [SEQ ID NO: 21]
activity (MIC) and protease resistance [3]: better activity (lower MIC) and protease resistance

CWTKSIPPKPCGLRKILKKIKNKIKEKLKKIGQKIQGLLPKLAPRTDY (Description of sequence: Mutation Sequence) [SEQ ID NO: 19]
activity (MIC) and protease resistance [3]: better activity (lower MIC) and protease resistance

GLKKRLRKFRNKIKEKLKKIGQKIQGLLPKLAPRTDY [C7]
Thermotolerance at 90 for 5 minutes (MIC, ug/ml) (E. coli DH5 alpha): 200 µg/mL | Resistance to proteinase K (MIC, ug/ml) (E. coli DH5alpha [1]): >400 µg/mL | Resistance to trypsin (MIC, ug/ml) (E. coli DH5alpha [2]): 50 µg/mL

GLRKRLRKFRNKIKEKLKKIGQKIQGLLPKIAPRTDY [C16]
Thermotolerance at 90 for 5 minutes (MIC, ug/ml) (E. coli DH5 alpha): 100 µg/mL | Resistance to proteinase K (MIC, ug/ml) (E. coli DH5alpha [1]): >400 µg/mL | Resistance to trypsin (MIC, ug/ml) (E. coli DH5alpha [2]): 50 µg/mL

GLRKRIRKFRNKIKEKLKKIGQKIQGLLPKLAPRTDY [C14]
Thermotolerance at 90 for 5 minutes (MIC, ug/ml) (E. coli DH5 alpha): 100 µg/mL | Resistance to proteinase K (MIC, ug/ml) (E. coli DH5alpha [1]): >400 µg/mL | Resistance to trypsin (MIC, ug/ml) (E. coli DH5alpha [2]): 50 µg/mL

GLRKRLRKFRNKIKEKLKKIGQKIQGLLPKPAPRTDY [C5]
Thermotolerance at 90 for 5 minutes (MIC, ug/ml) (E. coli DH5 alpha): >400 µg/mL | Resistance to proteinase K (MIC, ug/ml) (E. coli DH5alpha [1]): >400 µg/mL | Resistance to trypsin (MIC, ug/ml) (E. coli DH5alpha [2]): 400 µg/mL

GLRKRLRKFRPKIKEKLKKIGQKIQGLLPKLAPRTDY [C3]
Thermotolerance at 90 for 5 minutes (MIC, ug/ml) (E. coli DH5 alpha): >400 µg/mL | Resistance to proteinase K (MIC, ug/ml) (E. coli DH5alpha [1]): >400 µg/mL | Resistance to trypsin (MIC, ug/ml) (E. coli DH5alpha [2]): >400 µg/mL

GLRKRLRKFRNKIKEKLKKIGQKIQGLLPKLAPRPDY [C6]
Thermotolerance at 90 for 5 minutes (MIC, ug/ml) (E. coli DH5 alpha): 1200 µg/mL | Resistance to proteinase K (MIC, ug/ml) (E. coli DH5alpha [1]): >400 µg/mL | Resistance to trypsin (MIC, ug/ml) (E. coli DH5alpha [2]): >400 µg/mL

GLRPRLRKFRNKIKEKLKKIGQKIQGLLPKLAPRTDY [C1]
Thermotolerance at 90 for 5 minutes (MIC, ug/ml) (E. coli DH5 alpha): 200 µg/mL | Resistance to proteinase K (MIC, ug/ml) (E. coli DH5alpha [1]): >400 µg/mL | Resistance to trypsin (MIC, ug/ml) (E. coli DH5alpha [2]): 100 µg/mL

CCCSc1ccc2nc(NC(=O)OC)[nH]c2c1 [ALB, albendazole]
% of control MV (Giardia): 1.5%

GLRKRLRKFRNKIKEKIKKIGQKIQGLLPKLAPRTDY [C15]
Thermotolerance at 90 for 5 minutes (MIC, ug/ml) (E. coli DH5 alpha): 200 µg/mL | Resistance to proteinase K (MIC, ug/ml) (E. coli DH5alpha [1]): >400 µg/mL | Resistance to trypsin (MIC, ug/ml) (E. coli DH5alpha [2]): 50 µg/mL

GLRKRLRPFRNKIKEKLKKIGQKIQGLLPKLAPRTDY [C2]
Thermotolerance at 90 for 5 minutes (MIC, ug/ml) (E. coli DH5 alpha): 100 µg/mL | Resistance to proteinase K (MIC, ug/ml) (E. coli DH5alpha [1]): >400 µg/mL | Resistance to trypsin (MIC, ug/ml) (E. coli DH5alpha [2]): >400 µg/mL

CCCNC[C@]1(O)[C@H](C)O[C@@H](O[C@H]2[C@H](C)[C@@H](O[C@@H]3O[C@H](C)C[C@H](N(C)C)[C@H]3O)[C@](C)(O)C[C@@H](C)CN[C@H](C)[C@@H](O)[C@](C)(O)[C@@H](CC)OC(=O)[C@@H]2C)C[C@@]1(C)OC [tulathromycin]
lung consolidation [4]: ~5%

GLRKRLRKFKNKIKEKLKKIGQKIQGLLPKLAPRTDY [C10]
Thermotolerance at 90 for 5 minutes (MIC, ug/ml) (E. coli DH5 alpha): 100 µg/mL | Resistance to proteinase K (MIC, ug/ml) (E. coli DH5alpha [1]): 400 µg/mL | Resistance to trypsin (MIC, ug/ml) (E. coli DH5alpha [2]): 50 µg/mL

GLRKRLRKIRNKIKEKLKKIGQKIQGLLPKLAPRTDY [C12]
Thermotolerance at 90 for 5 minutes (MIC, ug/ml) (E. coli DH5 alpha): 100 µg/mL | Resistance to proteinase K (MIC, ug/ml) (E. coli DH5alpha [1]): 200 µg/mL | Resistance to trypsin (MIC, ug/ml) (E. coli DH5alpha [2]): 100 µg/mL

CWTKSIPPKPCGCRKPLRKIRNKIKEKLKKIGQKIQGLLPKLAPRTDY (Description of sequence: Mutation Sequence) [SEQ ID NO: 22]
activity (MIC) and protease resistance [3]: better activity (lower MIC) and protease resistance

— patent US20250034218A1, “ANTIMICROBIAL PEPTIDES” (BiomEdit, LLC, priority 2021, published 2025)
